# Assay results as given in US20140179664A1, “Heterocyclyl Pyrimidine Analogues As JAK Inhibitors” (Cellzome Limited, priority 2011, published 2014).
# Experiments:
# Format in all cases: binding
# TYK2 = target: T1, TYK2 (Homo sapiens, UniProt P29597); assay: Kinobeads assay, TYK2; settings: mixed Molt4/Ramos lysate, read-out: Inhibition values (IC50) TYK2
# T1 construct: endogenous in cells; host or cells: Molt4 (ATCC CRL-1582) and Ramos (ATCC CRL-1596), mixed lysate 1:2
# Method: (§1) The compounds of the present invention as described in the previous examples were tested in a Kinobeads™ assay as described for ZAP-70 (WO-A 2007/137867). Briefly, test compounds (at various concentrations) and the affinity matrix with the immobilized aminopyrido-pyrimidine ligand 24 were added to cell lysate aliquots and allowed to bind to the proteins in the lysate sample. After the incubation time the beads with captured proteins were separated from the lysate. Bound proteins were then eluted and the presence of JAK1, JAK2, JAK3 and TYK2 was detected and quantified using specific antibodies in a dot blot procedure and the Odyssey infrared detection system. Dose response curves for individual kinases were generated and IC50 values calculated. Kinobeads™ assays for ZAP-70 (WO-A 2007/137867) and for kinase selectivity profiling (WO-A 2006/134056) have been previously described.
# (§2) The affinity matrix was washed two times with 15 mL of lx DP buffer containing 0.2% NP40 (IGEPAL® CA-630, Sigma, #13021) and then resuspended in 1×DP buffer containing 0.2% NP40 (3% beads slurry).
# (§3) 5×DP buffer: 250 mM Tris-HCl pH 7.4, 25% Glycerol, 7.5 mM MgCl2, 750 mM NaCl, 5 mM Na3VO4; filter the 5×DP buffer through a 0.22 μm filter and store in aliquots at −80° C. The 5×DP buffer is diluted with H2O to 1×DP buffer containing 1 mM DTT and 25 mM NaF.
# (§4) Stock solutions of test compounds were prepared in DMSO. In a 96 well plate […] solution of diluted test compounds at 5 mM in DMSO were prepared. Starting with this solution a 1:3 dilution series (9 steps) was prepared. For control experiments (no test compound) a buffer containing 2% DMSO was used.
# (§5) Molt4 cells (ATCC catalogue number CRL-1582) and Ramos cells (ATCC catalogue number CRL-1596) were grown in 1 L Spinner flasks (Integra Biosciences, #182101) in suspension in RPMI 1640 medium (Invitrogen, #21875-034) supplemented with 10% Fetal Bovine Serum (Invitrogen) at a density between 0.15×10^6 and 1.2×10^6 cells/mL. Cells were harvested by centrifugation, washed once with 1×PBS buffer (Invitrogen, #14190-094) and cell pellets were frozen in liquid nitrogen and subsequently stored at −80° C. Cells were homogenized in a Potter S homogenizer in lysis buffer: 50 mM Tris-HCl, 0.8% NP40, 5% glycerol, 150 mM NaCl, 1.5 mM MgCl2, 25 mM NaF, 1 mM sodium vanadate, 1 mM DTT, pH 7.5. One complete EDTA-free tablet (protease inhibitor cocktail, Roche Diagnostics, 1873580) per 25 mL buffer was added. The material was dounced 10 times using a mechanized POTTER S, transferred to 50 mL falcon tubes, incubated for 30 minutes on ice and spun down for 10 minutes at 20,000 g at 4° C. (10,000 rpm in Sorvall SLA600, precooled). The supernatant was transferred to an ultracentrifuge (UZ)-polycarbonate tube (Beckmann, 355654) and spun for 1 hour at 100.000 g at 4° C. (33.500 rpm in Ti50.2, precooled). The supernatant was transferred again to a fresh 50 mL falcon tube, the protein concentration was determined by a Bradford assay (BioRad) and samples containing 50 mg of protein per aliquot were prepared. The samples were immediately used for experiments or frozen in liquid nitrogen and stored frozen at −80° C.
# (§6) Cell lysate (approximately 50 mg protein per plate) was thawed in a water bath at room temperature and then stored on ice. To the thawed cell lysate 1×DP 0.8% NP40 buffer containing protease inhibitors (1 tablet for 25 mL buffer; EDTA-free protease inhibitor cocktail; Roche Diagnostics 1873580) was added in order to reach a final protein concentration of 10 mg/mL total protein. The diluted cell lysate was stored on ice. Mixed Molt4/Ramos lysate was prepared by combining one volume of Molt4 lysate and two volumes of Ramos lysate (ratio 1:2).
# (§7) To a 96 well filter plate (Multiscreen HTS, BV Filter Plates, Millipore #MSBVN1250) were added per well: 100 μL affinity matrix (3% beads slurry), […], of compound solution, and 50 μL of diluted lysate. […]
# JAK1 = target: T2, JAK1 (Homo sapiens, UniProt P23458); assay: Kinobeads assay, JAK1; settings: mixed Molt4/Ramos lysate, read-out: Inhibition values (IC50) JAK1
# T2 construct: endogenous in cells; host or cells: Molt4 (ATCC CRL-1582) and Ramos (ATCC CRL-1596), mixed lysate 1:2
# T2 sequence (P23458 whole entry): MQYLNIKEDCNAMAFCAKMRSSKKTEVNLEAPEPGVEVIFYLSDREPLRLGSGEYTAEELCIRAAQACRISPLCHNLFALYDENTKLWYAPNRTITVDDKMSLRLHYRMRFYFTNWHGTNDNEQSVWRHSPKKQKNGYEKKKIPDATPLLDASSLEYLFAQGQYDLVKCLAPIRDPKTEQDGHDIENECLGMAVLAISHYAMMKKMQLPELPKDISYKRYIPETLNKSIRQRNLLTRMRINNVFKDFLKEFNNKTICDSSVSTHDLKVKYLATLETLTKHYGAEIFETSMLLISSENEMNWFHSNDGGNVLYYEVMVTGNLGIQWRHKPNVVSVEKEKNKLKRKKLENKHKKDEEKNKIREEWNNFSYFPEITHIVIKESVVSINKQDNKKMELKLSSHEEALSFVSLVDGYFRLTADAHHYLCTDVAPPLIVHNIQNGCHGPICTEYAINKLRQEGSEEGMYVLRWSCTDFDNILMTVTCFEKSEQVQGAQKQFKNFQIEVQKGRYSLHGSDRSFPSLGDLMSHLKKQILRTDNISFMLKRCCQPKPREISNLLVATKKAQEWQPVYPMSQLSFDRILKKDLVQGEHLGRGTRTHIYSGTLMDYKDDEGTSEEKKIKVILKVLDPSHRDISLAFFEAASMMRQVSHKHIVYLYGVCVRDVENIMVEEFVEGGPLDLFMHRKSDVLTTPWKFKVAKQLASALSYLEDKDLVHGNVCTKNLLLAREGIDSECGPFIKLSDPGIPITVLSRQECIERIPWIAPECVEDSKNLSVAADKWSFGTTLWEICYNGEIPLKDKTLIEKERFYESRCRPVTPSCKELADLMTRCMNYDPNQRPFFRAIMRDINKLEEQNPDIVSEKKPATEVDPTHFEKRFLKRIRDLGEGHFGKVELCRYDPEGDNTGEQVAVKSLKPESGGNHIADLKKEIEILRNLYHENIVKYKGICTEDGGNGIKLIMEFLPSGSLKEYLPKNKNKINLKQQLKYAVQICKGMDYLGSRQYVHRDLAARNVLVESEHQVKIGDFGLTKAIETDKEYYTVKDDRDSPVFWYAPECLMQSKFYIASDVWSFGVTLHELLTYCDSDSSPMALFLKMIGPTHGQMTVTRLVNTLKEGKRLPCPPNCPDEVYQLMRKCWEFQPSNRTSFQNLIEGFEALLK
# Method: After the incubation time the beads with captured proteins were separated from the lysate. Bound proteins were then eluted and the presence of JAK1, JAK2, JAK3 and TYK2 was detected and quantified using specific antibodies in a dot blot procedure and the Odyssey infrared detection system. Dose response curves for individual kinases were generated and IC50 values calculated.
# as §3
# Stock solutions of test compounds were prepared in DMSO. […] Starting with this solution a 1:3 dilution series (9 steps) was prepared. For control experiments (no test compound) a buffer containing 2% DMSO was used.
# Cells were homogenized in a Potter S homogenizer in lysis buffer: 50 mM Tris-HCl, 0.8% NP40, 5% glycerol, 150 mM NaCl, 1.5 mM MgCl2, 25 mM NaF, 1 mM sodium vanadate, 1 mM DTT, pH 7.5. […] The material was dounced 10 times using a mechanized POTTER S, transferred to 50 mL falcon tubes, incubated for 30 minutes on ice and spun down for 10 minutes at 20,000 g at 4° C. (10,000 rpm in Sorvall SLA600, precooled). […] (33.500 rpm in Ti50.2, precooled). The supernatant was transferred again to a fresh 50 mL falcon tube, the protein concentration was determined by a Bradford assay (BioRad) and samples containing 50 mg of protein per aliquot were prepared. The samples were immediately used for experiments or frozen in liquid nitrogen and stored frozen at −80° C.
# Cell lysate (approximately 50 mg protein per plate) was thawed in a water bath at room temperature and then stored on ice. […] The diluted cell lysate was stored on ice. Mixed Molt4/Ramos lysate was prepared by combining one volume of Molt4 lysate and two volumes of Ramos lysate (ratio 1:2).
# Plates were sealed and incubated for 3 hours in a cold room on a plate shaker (Heidolph tiramax 1000) at 750 rpm. Afterwards the plate was washed 3 times with 230 μL washing buffer (1×DP 0.4% NP40). […] The eluate was frozen quickly at −80° C. and stored at −20° C.
# Afterwards the membrane was washed twice for 10 minutes with PBS buffer containing 0.2% Tween 20 at room temperature. […] Afterwards the membrane was washed twice for 10 minutes each with 1×PBS buffer containing 0.2% Tween 20 at room temperature. Then the membrane was rinsed once with PBS buffer to remove residual Tween 20. The membrane was kept in PBS buffer at 4° C. and then scanned with the Odyssey instrument. Fluorescence signals were recorded and analysed according to the instructions of the manufacturer.
# JAK2 = target: T3, JAK2 (Homo sapiens, UniProt O60674); assay: Kinobeads assay, JAK2; settings: mixed Molt4/Ramos lysate, read-out: Inhibition values (IC50) JAK2
# T3 construct: endogenous in cells; host or cells: Molt4 (ATCC CRL-1582) and Ramos (ATCC CRL-1596), mixed lysate 1:2
# T3 sequence (O60674 whole entry): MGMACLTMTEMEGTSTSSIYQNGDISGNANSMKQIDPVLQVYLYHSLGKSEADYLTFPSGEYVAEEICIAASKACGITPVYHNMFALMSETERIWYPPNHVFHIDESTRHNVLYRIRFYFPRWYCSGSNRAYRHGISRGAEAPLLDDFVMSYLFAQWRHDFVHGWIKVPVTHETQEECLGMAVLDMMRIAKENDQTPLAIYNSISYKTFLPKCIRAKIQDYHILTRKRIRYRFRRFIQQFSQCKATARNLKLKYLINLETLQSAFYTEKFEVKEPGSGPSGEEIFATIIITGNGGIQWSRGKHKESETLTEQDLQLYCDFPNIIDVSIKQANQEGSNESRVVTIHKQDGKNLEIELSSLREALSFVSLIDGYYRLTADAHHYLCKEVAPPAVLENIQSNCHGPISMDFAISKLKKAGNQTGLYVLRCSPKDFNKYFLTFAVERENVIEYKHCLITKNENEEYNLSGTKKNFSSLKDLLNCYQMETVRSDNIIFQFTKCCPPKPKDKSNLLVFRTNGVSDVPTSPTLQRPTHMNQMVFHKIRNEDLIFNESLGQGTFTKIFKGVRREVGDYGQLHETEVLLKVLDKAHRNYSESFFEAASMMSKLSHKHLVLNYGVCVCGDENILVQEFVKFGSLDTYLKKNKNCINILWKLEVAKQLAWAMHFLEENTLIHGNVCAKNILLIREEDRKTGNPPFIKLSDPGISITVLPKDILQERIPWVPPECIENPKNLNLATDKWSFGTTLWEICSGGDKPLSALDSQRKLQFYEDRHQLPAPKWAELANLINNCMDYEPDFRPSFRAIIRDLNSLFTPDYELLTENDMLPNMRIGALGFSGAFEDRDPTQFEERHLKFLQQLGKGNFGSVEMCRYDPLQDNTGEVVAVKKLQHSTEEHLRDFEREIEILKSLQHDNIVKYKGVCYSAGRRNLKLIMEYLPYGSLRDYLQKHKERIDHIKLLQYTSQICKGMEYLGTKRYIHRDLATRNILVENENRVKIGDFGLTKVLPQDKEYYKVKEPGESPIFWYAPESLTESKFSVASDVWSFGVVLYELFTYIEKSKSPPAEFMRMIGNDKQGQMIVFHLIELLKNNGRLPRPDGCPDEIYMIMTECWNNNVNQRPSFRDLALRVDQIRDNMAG
# Method: as §1, §2, §3, §4, §5, §6, §7
# T1 sequence (P29597 whole entry): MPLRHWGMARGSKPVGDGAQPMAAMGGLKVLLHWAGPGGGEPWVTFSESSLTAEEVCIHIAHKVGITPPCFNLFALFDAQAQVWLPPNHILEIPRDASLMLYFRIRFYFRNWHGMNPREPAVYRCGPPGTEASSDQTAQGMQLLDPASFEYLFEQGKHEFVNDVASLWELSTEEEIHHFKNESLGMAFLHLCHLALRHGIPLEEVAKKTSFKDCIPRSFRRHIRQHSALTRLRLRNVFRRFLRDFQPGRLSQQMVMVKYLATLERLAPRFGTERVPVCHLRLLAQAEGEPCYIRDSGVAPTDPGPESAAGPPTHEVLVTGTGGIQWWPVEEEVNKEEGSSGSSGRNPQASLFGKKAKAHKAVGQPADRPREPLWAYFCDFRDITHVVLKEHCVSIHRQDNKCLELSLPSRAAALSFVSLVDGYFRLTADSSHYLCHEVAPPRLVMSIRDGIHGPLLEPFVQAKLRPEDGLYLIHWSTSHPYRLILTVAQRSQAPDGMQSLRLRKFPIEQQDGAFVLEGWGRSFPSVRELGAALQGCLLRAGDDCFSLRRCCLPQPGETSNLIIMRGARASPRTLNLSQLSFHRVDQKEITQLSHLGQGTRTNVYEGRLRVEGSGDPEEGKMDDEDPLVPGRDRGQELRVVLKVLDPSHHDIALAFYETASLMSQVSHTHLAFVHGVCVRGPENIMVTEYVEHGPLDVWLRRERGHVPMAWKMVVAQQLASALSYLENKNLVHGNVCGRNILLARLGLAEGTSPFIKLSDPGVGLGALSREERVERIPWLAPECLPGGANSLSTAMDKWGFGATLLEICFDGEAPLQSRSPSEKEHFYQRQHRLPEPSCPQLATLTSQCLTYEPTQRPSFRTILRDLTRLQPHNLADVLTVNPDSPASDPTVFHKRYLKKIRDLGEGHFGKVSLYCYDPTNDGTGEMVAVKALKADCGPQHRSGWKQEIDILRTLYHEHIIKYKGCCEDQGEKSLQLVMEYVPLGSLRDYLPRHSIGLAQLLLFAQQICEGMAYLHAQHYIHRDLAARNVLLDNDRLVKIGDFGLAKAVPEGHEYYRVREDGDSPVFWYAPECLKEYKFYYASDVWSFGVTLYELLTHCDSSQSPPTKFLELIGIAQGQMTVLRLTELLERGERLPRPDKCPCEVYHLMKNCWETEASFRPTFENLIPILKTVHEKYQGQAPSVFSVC
SMILES,IC50 (TYK2),IC50 (JAK1),IC50 (JAK2)
CNC(=O)Cn1cc(Nc2ncc(Cl)c(N[C@H](CO)c3cc(F)cc(-c4cnn(C)c4)c3)n2)cn1 [Compound 156],≥ 10000 nM,1000 to 10000 nM,1000 to 10000 nM
Cc1cnc(Nc2cnn(CC(F)F)c2)nc1N[C@H](CO)c1cc(F)ccc1F [Compound 166],1000 to 10000 nM,100 to 1000 nM,1000 to 10000 nM
CNC(=O)Cn1cc(Nc2ncc(Cl)c(N[C@H](CO)c3ccccc3OC)n2)cn1 [Compound 98],100 to 1000 nM,100 to 1000 nM,1000 to 10000 nM
O=C(Cn1cc(Nc2ncc(Cl)c(N[C@H](CO)c3ccccc3F)n2)cn1)N1CCOCC1 [Compound 103],100 to 1000 nM,100 to 1000 nM,1000 to 10000 nM
Cn1cc(Nc2ncc(Cl)c(NC(C)(CO)c3ccccc3)n2)cn1 (stereo not drawn) [Compound 7],1000 to 10000 nM,1000 to 10000 nM,≥ 10000 nM
Cn1cc(-c2cccc([C@@H](CO)Nc3nc(Nc4cnn(CCO)c4)ncc3Cl)c2)cn1 [Compound 151],≥ 10000 nM,1000 to 10000 nM,≥ 10000 nM
Cn1cc(Nc2ncc(Cl)c(N[C@H](CO)c3cc(F)ccc3F)n2)cn1 [Compound 139],100 to 1000 nM,100 to 1000 nM,100 to 1000 nM
Cn1cc(Nc2ncc(Cl)c(NC(CO)c3cc(F)ccc3F)n2)cn1 (stereo not drawn) [Compound 129],100 to 1000 nM,100 to 1000 nM,100 to 1000 nM
CC(C)n1cc(Nc2ncc(Cl)c(N[C@H](CO)c3cccnc3)n2)cn1 [Compound 107],1000 to 10000 nM,1000 to 10000 nM,1000 to 10000 nM
Cn1cc(Nc2ncc(F)c(N[C@H](CO)c3cc(F)cc(-c4cnn(C)c4)c3)n2)cn1 [Compound 150],≥ 10000 nM,1000 to 10000 nM,≥ 10000 nM
CC[C@@H](Nc1nc(Nc2cnn(C)c2)ncc1Cl)c1ccccc1 [Compound 5],≥ 10000 nM,1000 to 10000 nM,1000 to 10000 nM
OCCn1cc(Nc2ncc(Cl)c(N[C@H](CO)c3ccccc3)n2)cn1 [Compound 9],1000 to 10000 nM,100 to 1000 nM,1000 to 10000 nM
O=C(Cn1cc(Nc2ncc(F)c(N[C@H](CO)c3ccccc3)n2)cn1)N1CCOCC1 [Compound 112],100 to 1000 nM,1000 to 10000 nM,≥ 10000 nM
Cn1cc(Nc2ncc(Cl)c(N[C@H](CO)c3cccc(-c4cnn(C)c4)c3)n2)cn1 [Compound 136],≥ 10000 nM,> 10000 nM,≥ 10000 nM
CCn1cc(Nc2ncc(Cl)c(N[C@H](CO)c3cccnc3)n2)cn1 [Compound 97],1000 to 10000 nM,1000 to 10000 nM,1000 to 10000 nM
CNC(=O)Cn1cc(Nc2ncc(C)c(N[C@H](CO)c3ccccc3)n2)cn1 [Compound 133],1000 to 10000 nM,1000 to 10000 nM,1000 to 10000 nM
